# Test results taken from US20100004293A1, “CRYSTALLINE FORMS OF ARYL-SUBSTITUTED PYRAZOLE-AMIDE COMPOUNDS” (Bristol-Myers Squibb Company, priority 2006, published 2010).
# What was measured:
# [1] = slurry conversion studies at 25 and 50° C. and melting data (relative polymorph stability); assay type: physicochemical
# [2] = slurry conversion studies in butanol/water mixtures (N-2/H-1); assay type: physicochemical; conditions: N-2 versus H-1, butanol/water slurry
# Text: (§1) The available data establish the following RH range for equilibrium N-2/H-1 conversion: 25%<RHeq<=30%. Wetcakes subjected to RH<30% are subject to dehydration, kinetic factors notwithstanding.
# [3] = moisture sorption study; assay type: physicochemical
# Text: as §1
# [4] = dehydration/heating of monohydrate H-1; assay type: physicochemical
# [5] = solid-state storage stability (temperature/humidity, HIL, filler excipients); assay type: physicochemical
# Text: (§2) Based on the equilibrium RH studies, N-2 could undergo hydrate formation during handling, formulation or storage.
# [6] = aqueous solubility of crystalline forms; assay type: physicochemical
# [7] = drying studies for H-1; assay type: physicochemical
# Text: as §2
# [8] = solvate stability by single crystal structure determination at different temperatures; assay type: physicochemical; conditions: solvent site fully occupied at −50° C., still 50% occupied at +82° C.
# Text: In addition to the monohydrate, Compound I also forms solvates with a large number of organic solvents. The type 3 family of solvates (represented by an EtOAc solvate, form EA.5-3; a PrOAc solvate, form PA.5-3; a MeCN solvate, form AN-3; and a CH2CL2 solvate, DC-3) have a large hydrophobic clathrate channel (V˜215 Å^3) parallel to the crystallographic a repeat. […] The single crystal structures of an ethanol solvate (E-8), an isopropanol solvate (IPA-10), a second acetonitrile form (AN-11) and three mixed solvates (SA-9, SB-12, SC-13) with THF and water have been determined.
# [9] = monkey PK crossover study; assay type: in vivo; conditions: monkey PK crossover study (n=4)
# Text: as §2
# [10] = exposed to HIL for at least 1 week
# [11] = stored at 50° C./75% RH open and closed for at least 4 weeks
smiles,measurement,setting,value
"Cc1ccc(C(=O)NC2CC2)cc1NC(=O)c1cnn(-c2ncccc2C(F)(F)F)c1C [Form N-5, N-(5-(cyclopropylcarbamoyl)-2-methylphenyl)-5-methyl-1-(3-(trifluoromethyl)pyridin-2-yl)-1H-pyrazole-4-carboxamide]",relative stability N-5:N-6 (monotropes),[1]; N-5 versus N-6,more stable
"Cc1ccc(C(=O)NC2CC2)cc1NC(=O)c1cnn(-c2ncccc2C(F)(F)F)c1C [Form H-1, N-(5-(cyclopropylcarbamoyl)-2-methylphenyl)-5-methyl-1-(3-(trifluoromethyl)pyridin-2-yl)-1H-pyrazole-4-carboxamide]",RH at which the form is the more stable form,[2],≥ 30%
same,hygroscopicity,[3]; about 35 to about 75% RH,essentially non-hygroscopic
same,"water sorption, descending RH run",[3]; at 25% RH,partially dehydrated
same,form conversion upon heating,"[4]; 90° C., 30 m, to neat form T1H1 (N-7)",converts topotactically
same,stability under reduced humidity,[4]; reduced humidity,unstable
same,chemical and physical stability in the solid-state,[5]; [10],chemically and physically stable
same,chemical and physical stability in the solid-state,[5]; [11],chemically and physically stable
same,aqueous solubility,[6],7 µg/mL
same,form conversion on drying,[7]; dryer at 20-30% RH,no conversion was observed
same,form conversion on drying,[7]; dryer maintained at 40° C. at RH 2.4-3.4%,converted to N-7
"Cc1ccc(C(=O)NC2CC2)cc1NC(=O)c1cnn(-c2ncccc2C(F)(F)F)c1C [Form N-7, N-(5-(cyclopropylcarbamoyl)-2-methylphenyl)-5-methyl-1-(3-(trifluoromethyl)pyridin-2-yl)-1H-pyrazole-4-carboxamide]","relative stability of N-7 (monotropic with N-2, N-5 and N-6)","[1]; versus N-2, N-5 and N-6",less stable at all temperatures below 192 °C
Cc1ccc(C(=O)NC2CC2)cc1NC(=O)c1cnn(-c2ncccc2C(F)(F)F)c1C [Form M-4],stability of solvate,[8],relatively stable
Cc1ccc(C(=O)NC2CC2)cc1NC(=O)c1cnn(-c2ncccc2C(F)(F)F)c1C [dehydrated H-1],"water sorption, ascending RH run",[3]; between 75 and 95% RH,partially rehydrates to H-1
"Cc1ccc(C(=O)NC2CC2)cc1NC(=O)c1cnn(-c2ncccc2C(F)(F)F)c1C [Form N-2, N-(5-(cyclopropylcarbamoyl)-2-methylphenyl)-5-methyl-1-(3-(trifluoromethyl)pyridin-2-yl)-1H-pyrazole-4-carboxamide]",RH at which the form is the more stable form,[2],≤ 16%
same,hygroscopicity,[3]; about 25 to about 75% RH at 25° C.,non-hygroscopic
same,exposure for the N-2 relative to H-1,[9],~2 fold
same,chemical and physical stability in the solid-state,[5]; [10],chemically and physically stable
same,form conversion (hydrate formation) on storage,"[5]; stored 3 weeks or more at elevated temperature and humidity (e.g., 50° C./75% RH), in the presence of common filler excipients",no conversion
same,chemical and physical stability in the solid-state,[5]; [11],chemically and physically stable
same,relative stability among polymorphic (neat) forms,[1]; at 25° C. and 50° C.,most stable polymorphic (neat) form
same,aqueous solubility,[6],≥ 28 µg/mL
same,solubility ratio (N-2 to H-1),"[6]; aqueous solubility, N-2 relative to H-1",~4 ×
